Measured values published in publication PMC3813382 (The Journal of General Physiology, 2013).
Where a chain is given by its changes, count along the chain named. “Also recorded” adds a separate entry of the source.

Experiments:
[1] = test system: endogenous currents present in uninjected oocytes; test: Effect of NFA on uninjected oocytes; format: cell-based, Xenopus laevis
F258A Slo2.1 channels = molecular target: T1, F258A Slo2.1 channels (Homo sapiens, UniProt Q6UVM3, F258A); test: Activation of ISlo2.1 by NFA, two-electrode voltage clamp in oocytes; format: cell-based
T1 sequence (Q6UVM3 1-1135 F258A): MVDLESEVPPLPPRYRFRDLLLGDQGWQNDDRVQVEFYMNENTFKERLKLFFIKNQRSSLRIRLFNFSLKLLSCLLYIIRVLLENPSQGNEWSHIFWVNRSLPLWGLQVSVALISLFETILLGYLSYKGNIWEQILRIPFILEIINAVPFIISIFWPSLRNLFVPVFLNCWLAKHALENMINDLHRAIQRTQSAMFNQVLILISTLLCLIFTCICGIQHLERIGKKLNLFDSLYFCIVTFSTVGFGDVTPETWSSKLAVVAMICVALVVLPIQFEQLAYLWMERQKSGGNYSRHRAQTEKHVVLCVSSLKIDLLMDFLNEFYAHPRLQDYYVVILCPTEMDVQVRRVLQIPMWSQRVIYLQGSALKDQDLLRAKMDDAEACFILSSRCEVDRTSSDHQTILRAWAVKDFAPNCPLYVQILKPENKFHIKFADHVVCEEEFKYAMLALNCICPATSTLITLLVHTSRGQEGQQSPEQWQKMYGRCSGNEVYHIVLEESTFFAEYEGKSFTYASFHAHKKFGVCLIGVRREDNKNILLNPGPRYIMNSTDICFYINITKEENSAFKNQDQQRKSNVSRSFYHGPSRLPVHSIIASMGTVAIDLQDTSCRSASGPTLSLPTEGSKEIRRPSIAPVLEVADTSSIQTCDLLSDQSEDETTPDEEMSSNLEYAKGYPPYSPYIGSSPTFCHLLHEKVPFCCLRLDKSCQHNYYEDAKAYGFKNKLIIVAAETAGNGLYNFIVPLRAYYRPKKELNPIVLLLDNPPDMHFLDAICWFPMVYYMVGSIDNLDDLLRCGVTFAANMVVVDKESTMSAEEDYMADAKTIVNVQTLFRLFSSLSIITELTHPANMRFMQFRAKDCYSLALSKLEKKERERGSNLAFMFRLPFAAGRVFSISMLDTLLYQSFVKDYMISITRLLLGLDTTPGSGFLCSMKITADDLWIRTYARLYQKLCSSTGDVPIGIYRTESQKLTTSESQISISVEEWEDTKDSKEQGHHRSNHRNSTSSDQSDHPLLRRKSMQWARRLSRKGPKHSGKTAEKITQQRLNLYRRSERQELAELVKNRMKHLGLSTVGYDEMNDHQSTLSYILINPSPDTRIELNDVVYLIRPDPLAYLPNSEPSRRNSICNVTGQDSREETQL

L209T Slo2.1 channels = molecular target: T2, L209T Slo2.1 channels (Homo sapiens, UniProt Q6UVM3, L209T); test: as above; format: cell-based
T2 sequence (Q6UVM3 1-1135 L209T): T1 sequence (Q6UVM3 1-1135 F258A) with L209T, A258F

- EC50 (F258A Slo2.1 channels): 400 ± 50 µM
- Hill coefficient nH of NFA activation (F258A Slo2.1 channels; F258A): 1.2 ± 0.08
- EC50 (L209T Slo2.1 channels): 106 µM
- Hill coefficient nH of NFA activation (L209T Slo2.1 channels; L209T): 1.39 ± 0.12
- NFA sensitivity of L209T relative to WT Slo2.1 (L209T Slo2.1 channels; L209T vs WT): 20 fold
SMILES: O=C(O)c1cccnc1Nc1cccc(C(F)(F)F)c1 [NFA, niflumic acid]
- effect on endogenous currents in uninjected oocytes ([1]; 1 mM NFA, I-Vt relationships): reduced
- effect on endogenous currents in uninjected oocytes ([1]; 6 mM NFA, I-Vt relationships): increased; also recorded: activated a relatively small endogenous current
- effect on endogenous currents in uninjected oocytes ([1]; NFA at concentrations up to 1 mM): slightly reduced
